This assay addresses T1, human PAH with the R408W mutation (Homo sapiens, UniProt P00439, R408W).
T1 construct: expressed in transfected cells
T1 sequence (P00439 1-452 R408W): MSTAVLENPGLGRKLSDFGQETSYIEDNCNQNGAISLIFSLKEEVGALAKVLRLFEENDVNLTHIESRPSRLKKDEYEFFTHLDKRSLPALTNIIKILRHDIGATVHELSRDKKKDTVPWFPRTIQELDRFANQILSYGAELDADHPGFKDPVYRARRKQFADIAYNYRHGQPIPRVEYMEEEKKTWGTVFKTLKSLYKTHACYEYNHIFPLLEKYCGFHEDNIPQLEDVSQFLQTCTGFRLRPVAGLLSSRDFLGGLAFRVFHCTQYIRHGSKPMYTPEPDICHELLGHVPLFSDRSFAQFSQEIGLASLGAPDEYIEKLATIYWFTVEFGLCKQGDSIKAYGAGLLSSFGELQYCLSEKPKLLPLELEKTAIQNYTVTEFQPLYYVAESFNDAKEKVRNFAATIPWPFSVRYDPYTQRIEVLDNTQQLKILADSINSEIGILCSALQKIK
Nature of the assay: Cell Based Phenylalanine Flux Assay. Further details: scale not given here. The following applies: 13C-Tyrosine by LC-MS, average where tested multiple times.

[1] abbreviates: A375 cells expressing human R408W PAH, 24 hrs compound incubation, read-out: AC50.
[2] abbreviates: A375 R408W cells, 24 hrs with compound, then 20 μM sepiapterin and 800 μM 13C9,15N-Phenylalanine for 4 hours, read-out: AC50.
Where [3] appears, read: A375 R408W cells, 24 hrs with compound, then 20 μM sepiapterin and 800 μM 13C9,15N-Phenylalanine for 4 hours.

Where two headings read alike, the source gives them in different places. Where only a bound is given, the exact number is not on record here.

Usually AC50 stands for the concentration giving half of the maximal activity seen.

In the case of `O=C(c1cnc(-c2ccccn2)s1)N1CCc2[nH]cnc2[C@@H]1c1cc2ccccc2cn1` [Example 301, (S)-(4-(isoquinolin-3-yl)-6,7-dihydro-1H-imidazo[4,5-c]pyridin-5(4H)-yl)(2-(pyridin-2-yl)thiazol-5-yl)methanone], the AC50 under setting [1] is greater than 5000 nM.
On the same count and under the same terms, for `Cn1cc(-c2ncc(C(=O)N3CCc4[nH]cnc4[C@H]3c3cc4ccccc4cn3)o2)cn1` [Example 311, (R)-(4-(isoquinolin-3-yl)-6,7-dihydro-1H-imidazo[4,5-c]pyridin-5(4H)-yl)(2-(1-methyl-1H-pyrazol-4-yl)oxazol-5-yl)methanone] the value was less than 500 nM.
With `O=C(CCc1nccs1)N1CCc2[nH]cnc2C1c1cc2ccccc2nn1` (centres unmarked), the AC50 under setting [2] lay within 1000 to 5000 nM.
In the case of `CC1CN(c2nnc(-c3ccccn3)o2)C(c2cc3ccccc3cn2)c2nc[nH]c21` (centres unmarked), the AC50 under setting [2] fell in the range of 1000 to 5000 nM.
Still for that read-out and setting: for `CC(C)(F)c1ncc(C(=O)N2CCc3[nH]cnc3C2c2cn3ccccc3n2)o1` (centres unmarked) the value was 1000 to 5000 nM.
As to `Cc1nc(C(C)(C)F)oc1C(=O)N1CCc2[nH]cnc2C1c1ccc2ccccc2n1` (stereo in doubt) [Example 22, (R)-(2-(2-fluoropropan-2-yl)-4-methyloxazol-5-yl)(4-(quinolin-2-yl)-6,7-dihydro-1H-imidazo[4,5-c]pyridin-5(4H)-yl)methanone], the AC50 under setting [1] is less than 500 nM.
Turning to `FC(F)(F)c1cnc(N2CCc3[nH]cnc3C2c2cc3ccccc3cn2)nc1` (centres unmarked), the AC50 under setting [2] lay in the range of 1000 to 5000 nM.
`Fc1ccc(-c2nnc(N3CCc4[nH]cnc4[C@H]3c3cc4ccccc4cn3)o2)cc1` [Example 337, (R)-2-(4-fluorophenyl)-5-(4-(isoquinolin-3-yl)-6,7-dihydro-1H-imidazo[4,5-c]pyridin-5(4H)-yl)-1,3,4-oxadiazole]: the AC50 under setting [1] was less than 500 nM.
Consider `O=C(c1nnc(-c2cc[nH]n2)o1)N1CCc2[nH]cnc2C1c1ccc2ccccc2n1` (stereo in doubt) [Example 116, (S)-(5-(1H-pyrazol-3-yl)-1,3,4-oxadiazol-2-yl)(4-(quinolin-2-yl)-6,7-dihydro-1H-imidazo[4,5-c]pyridin-5(4H)-yl)methanone], for which, under setting [1], the AC50 fell in the range of 1000 to 5000 nM.
For the compound `O=C(c1oc(-c2cncnc2)nc1C(F)F)N1CCc2[nH]cnc2C1c1ncc2ccccc2n1` (centres unmarked), the AC50 entry under setting [3] was “E, E”.
`Fc1ccc(-c2nnc(N3CCc4[nH]cnc4C3c3ccc4ccccc4n3)o2)cc1` (stereo in doubt) [Example 19, (S)-2-(4-fluorophenyl)-5-(4-(quinolin-2-yl)-6,7-dihydro-1H-imidazo[4,5-c]pyridin-5(4H)-yl)-1,3,4-oxadiazole]: the concentration at half-maximal activity (AC50) under setting [1] was greater than 5000 nM.
Consider `O=C(c1oc(C2(O)CC2)nc1C(F)F)N1CCc2[nH]cnc2C1c1ccc2ccccc2n1` (stereo in doubt) [Example 130, (R)-(4-(difluoromethyl)-2-(1-hydroxycyclopropyl)oxazol-5-yl)(4-(quinolin-2-yl)-6,7-dihydro-1H-imidazo[4,5-c]pyridin-5(4H)-yl)methanone], for which, under setting [1], the half-maximal activity concentration (AC50) was less than 500 nM.
As for `CC1CN(C(=O)c2ocnc2C(F)(F)F)C(c2cc3ccccc3cn2)c2nc[nH]c21` [(4S, 7R) diastereomer of 3-[7-methyl-5-[4-(trifluoromethyl)-], under setting [3], the AC50 result is reported as “E, E”.
`Cn1ccc(-c2nnc(C(=O)N3CCc4[nH]cnc4[C@H]3c3cc4ccccc4cn3)o2)n1` [Example 441, (R)-(4-(isoquinolin-3-yl)-6,7-dihydro-1H-imidazo[4,5-c]pyridin-5(4H)-yl)(5-(1-methyl-1H-pyrazol-3-yl)-1,3,4-oxadiazol-2-yl)methanone]: the AC50 under setting [1] was less than 500 nM.
Turning to `O=C(c1oc(-c2ccccn2)nc1C(F)F)N1CCc2[nH]cnc2C1c1ncc2ccccc2n1` (centres unmarked), the half-maximal activity concentration (AC50) entry under setting [3] is recorded as “E, E”.
For `CC1CN(C(=O)c2nnc(N3CCC(F)CC3)o2)C(c2cc3ccccc3cn2)c2nc[nH]c21` (centres unmarked), under setting [2], the AC50 lay within 1000 to 5000 nM.
Take `Cn1ccc(-c2nc(C(F)F)c(C(=O)N3CCc4[nH]cnc4[C@H]3c3ncc4ccccc4n3)o2)n1` (single isomer, unassigned): the AC50 result under setting [3] is recorded as “E, E”.
As to `Cn1nc(C(C)(C)O)cc1C(=O)N1CCc2[nH]cnc2C1c1ccc2ccccc2n1` (centres unmarked), the AC50 under setting [2] was greater than 5000 nM.
The same measure, in the same setting: for `O=C(c1cnn(-c2ccccn2)c1Cl)N1CCc2[nH]cnc2C1c1ccc2ccccc2n1` (centres unmarked) the value was greater than 5000 nM; for `CC(C)(O)c1nnc(C(=O)N2CCc3[nH]cnc3C2c2ncc3ccccc3n2)o1` (centres unmarked), greater than 5000 nM.
In the case of `O=C(c1nnc(-c2ccccn2)o1)N1CCc2[nH]cnc2[C@H]1c1cc2ccccc2cn1` [Example 324, (R)-(4-(isoquinolin-3-yl)-6,7-dihydro-1H-imidazo[4,5-c]pyridin-5(4H)-yl)(5-(pyridin-2-yl)-1,3,4-oxadiazol-2-yl)methanone], the AC50 under setting [1] is less than 500 nM.
Turning to `Cc1nc(N)oc1C(=O)N1CCc2[nH]cnc2C1c1ccc2ccccc2n1` (centres unmarked), the AC50 under setting [2] lay within 1000 to 5000 nM.
Turning to `Cn1cc(C(=O)N2CCc3[nH]cnc3C2c2ccc3ccccc3n2)c(C(F)F)n1` (stereo in doubt) [Example 84, (S)-(3-(difluoromethyl)-1-methyl-1H-pyrazol-4-yl)(4-(quinolin-2-yl)-6,7-dihydro-1H-imidazo[4,5-c]pyridin-5(4H)-yl)methanone], under setting [1], the AC50 fell in the range of 1000 to 5000 nM.
On the same count and under the same terms, for `O=C(c1nnc(-c2cnccn2)o1)N1CCc2[nH]cnc2[C@H]1c1ncc2ccccc2n1` [Example 192, (S)-(5-(pyrazin-2-yl)-1,3,4-oxadiazol-2-yl)(4-(quinazolin-2-yl)-6,7-dihydro-1H-imidazo[4,5-c]pyridin-5(4H)-yl)methanone] the value was 500 to 1000 nM; for `Cc1ncoc1C(=O)N1CCc2[nH]cnc2[C@H]1c1cn2ccccc2n1` [Example 228, (R)-(4-(imidazo[1,2-a]pyridin-2-yl)-6,7-dihydro-1H-imidazo[4,5-c]pyridin-5(4H)-yl)(4-methyloxazol-5-yl)methanone], 1000 to 5000 nM.
Take `Cn1cncc1-c1nc(C(F)F)c(C(=O)N2CCc3[nH]cnc3[C@@H]2c2ncc3ccccc3n2)o1` [Example 281, (R)-(4-(difluoromethyl)-2-(1-methyl-1H-imidazol-5-yl)oxazol-5-yl)(4-(quinazolin-2-yl)-6,7-dihydro-1H-imidazo[4,5-c]pyridin-5(4H)-yl)methanone]: the AC50 under setting [1] fell in the range of 500 to 1000 nM.
Same read-out and setting: for `O=C(c1nnc(-c2cnn(C(F)F)c2)o1)N1CCc2[nH]cnc2[C@H]1c1cc2ccccc2cn1` [Example 440, (R)-(5-(1-(difluoromethyl)-1H-pyrazol-4-yl)-1,3,4-oxadiazol-2-yl)(4-(isoquinolin-3-yl)-6,7-dihydro-1H-imidazo[4,5-c]pyridin-5(4H)-yl)methanone] the value was less than 500 nM.
As to `O=C(c1cnc(-c2cnn(CC(F)(F)F)c2)o1)N1CCc2[nH]cnc2[C@H]1c1cc2ccccc2cn1` [Example 305, (R)-(4-(isoquinolin-3-yl)-6,7-dihydro-1H-imidazo[4,5-c]pyridin-5(4H)-yl)(2-(1-(2,2,2-trifluoroethyl)-1H-pyrazol-4-yl)oxazol-5-yl)methanone], the half-maximal activity concentration (AC50) under setting [1] is less than 500 nM.
Take `CC(C)(O)c1cc(C(=O)N2CCc3[nH]cnc3C2c2ccc3ccccc3n2)no1` (centres unmarked): the AC50 under setting [2] lay within 1000 to 5000 nM.
As for `O=C(c1nnc(-c2cccnc2)o1)N1CCc2[nH]cnc2[C@H]1c1cc2ccccc2cn1` [Example 445, (R)-(4-(isoquinolin-3-yl)-6,7-dihydro-1H-imidazo[4,5-c]pyridin-5(4H)-yl)(5-(pyridin-3-yl)-1,3,4-oxadiazol-2-yl)methanone], under setting [1], the AC50 was less than 500 nM.
For the compound `O=C(c1nnc(N2CC(F)C2)o1)N1CCc2[nH]cnc2C1c1ccc2ccccc2n1` (centres unmarked), under setting [2], the AC50 is greater than 5000 nM.
With `COCc1nc(C(F)F)c(C(=O)N2CCc3[nH]cnc3C2c2ccc3ccccc3n2)o1` (stereo in doubt) [Example 77, (R)-(4-(difluoromethyl)-2-(methoxymethyl)oxazol-5-yl)(4-(quinolin-2-yl)-6,7-dihydro-1H-imidazo[4,5-c]pyridin-5(4H)-yl)methanone], the AC50 under setting [1] was less than 500 nM.
Consider `Cc1nc(C2CCN2)oc1C(=O)N1CCc2[nH]cnc2C1c1ccc2ccccc2n1` (centres unmarked), for which the AC50 under setting [2] fell in the range of 1000 to 5000 nM.
On to `O=C(c1oc(-c2ccccn2)nc1C(F)(F)F)N1CCc2[nH]cnc2C1c1ncc2ccccc2n1` (centres unmarked), for which, under setting [3], the AC50 result was “E, E”.
In the case of `CC(C)(O)c1nc(C2CC2)c(C(=O)N2CCc3[nH]cnc3C2c2cn3ccccc3n2)o1` (centres unmarked), the AC50 under setting [2] fell in the range of 1000 to 5000 nM.
`Cn1ccc(-c2nnc(C(=O)N3CCc4[nH]cnc4[C@H]3c3ncc4ccccc4n3)o2)n1` [Example 165, (S)-(5-(1-methyl-1H-pyrazol-3-yl)-1,3,4-oxadiazol-2-yl)(4-(quinazolin-2-yl)-6,7-dihydro-1H-imidazo[4,5-c]pyridin-5(4H)-yl)methanone]: under setting [1], the AC50 was in the range of 500 to 1000 nM.
Same read-out and setting: for `O=C(c1cnc(-c2ccccn2)s1)N1CCc2[nH]cnc2C1c1ccc2ccccc2n1` (stereo in doubt) [Example 2, (S)-(2-(pyridin-2-yl)thiazol-5-yl)(4-(quinolin-2-yl)-6,7-dihydro-1H-imidazo[4,5-c]pyridin-5(4H)-yl)methanone] the value was 1000 to 5000 nM.
As to `CC(C)(O)c1cc(C(=O)N2CCc3[nH]cnc3[C@H]2c2cc3ccccc3cn2)no1`, the AC50 under setting [2] fell in the range of 1000 to 5000 nM.

(Values after patent US20250262201A1, “COMPOUNDS AND METHODS USEFUL FOR STABILIZING PHENYLALANINE HYDROXYLASE MUTATIONS” (Agios Pharmaceuticals, Inc., priority 2022, published 2025).)
